Test results from PubChem BioAssay AID1845204 (Molecular Pharmacology Branch, DTP, NCI, 2023).

Test system: HSSY-II tumor spheroid viability
Test: Anticancer human tumor HSSY-II cell line growth inhibition;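 also: spheroids exposed to compounds for seven days before reading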;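 as to viability, T/C: percent of DMSO vehicle control viability so 100% = untreated level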
Conditions: spheroids with HUVEC and MSC; for IC50: curve of first compound; for viability, T/C: stronger effect = lower value
Procedure, shortened: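 Complex spheroids of malignant cells with endothelial cells and mesenchymal stem cells; agents alone or combined, from near clinical Cmax (or 10 microM if unknown) down in half-log steps, 0.25% DMSO final.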

[1] = second compound 1 µM, first compound 0.0316 µM
[2] = second compound 1 µM, first compound 0.1 µM
[3] = second compound 1 µM, first compound 0.316 µM
[4] = second compound 1 µM, first compound 1 µM
[5] = second compound 1 µM, first compound 3.16 µM
[6] = second compound 1 µM, first compound 10 µM
[7] = second compound 3.16 µM, first compound 0.0316 µM
[8] = second compound 3.16 µM, first compound 0.1 µM
[9] = second compound 3.16 µM, first compound 0.316 µM
[10] = second compound 3.16 µM, first compound 1 µM
[11] = second compound 3.16 µM, first compound 3.16 µM
[12] = second compound 3.16 µM, first compound 10 µM
[13] = second compound 10 µM, first compound 0.0316 µM
[14] = second compound 10 µM, first compound 0.1 µM
[15] = second compound 10 µM, first compound 0.316 µM
[16] = second compound 10 µM, first compound 1 µM
[17] = second compound 10 µM, first compound 3.16 µM
[18] = second compound 10 µM, first compound 10 µM
[19] = second compound 31.6 µM, first compound 0.0316 µM
[20] = second compound 31.6 µM, first compound 0.1 µM
[21] = second compound 31.6 µM, first compound 0.316 µM
[22] = second compound 31.6 µM, first compound 1 µM
[23] = second compound 31.6 µM, first compound 3.16 µM
[24] = second compound 31.6 µM, first compound 10 µM
[25] = second compound 100 µM, first compound 0.0316 µM
[26] = second compound 100 µM, first compound 0.1 µM
[27] = second compound 100 µM, first compound 0.316 µM
[28] = second compound 100 µM, first compound 1 µM
[29] = second compound 100 µM, first compound 3.16 µM
[30] = second compound 100 µM, first compound 10 µM

| SMILES | IC50 (second compound 1 µM) [µM] | IC50 (second compound 3.16 µM) [µM] | IC50 (second compound 10 µM) [µM] | IC50 (second compound 31.6 µM) [µM] | IC50 (second compound 100 µM) [µM] | viability, T/C [1] [%] | viability, T/C [2] [%] | viability, T/C [3] [%] | viability, T/C [4] [%] | viability, T/C [5] [%] | viability, T/C [6] [%] | viability, T/C [7] [%] | viability, T/C [8] [%] | viability, T/C [9] [%] | viability, T/C [10] [%] | viability, T/C [11] [%] | viability, T/C [12] [%] | viability, T/C [13] [%] | viability, T/C [14] [%] | viability, T/C [15] [%] | also measured |
| --- | --- | --- | --- | --- | --- | --- | --- | --- | --- | --- | --- | --- | --- | --- | --- | --- | --- | --- | --- | --- | --- |
| CC(C)n1c(=O)n(C)c2cnc3cc(F)c(-c4ccc(OCCCN5CCCCC5)nc4)cc3c21 + Cn1nnc2c(C(N)=O)ncn2c1=O | 6.4 | 6.7 | 6.54 | 5.86 | 9.48 | 100 | 97.4 | 97.2 | 89.6 | 72.7 | 35.8 | 102 | 102 | 98 | 93.7 | 70.1 | 39.2 | 103 | 107 | 97.4 | viability, T/C [16]: 97.4%; viability, T/C [17]: 73.7%; viability, T/C [18]: 36%; viability, T/C [19]: 108%; viability, T/C [20]: 96%; viability, T/C [21]: 92.4%; viability, T/C [22]: 89.9%; viability, T/C [23]: 70.9%; viability, T/C [24]: 32.4%; viability, T/C [25]: 88.5%; viability, T/C [26]: 92.9%; viability, T/C [27]: 86.5%; viability, T/C [28]: 76.1%; viability, T/C [29]: 69.6%; viability, T/C [30]: 48.4% |
| CC1COCCN1c1cc(-c2ccnn2C)c2ccnc(-c3ccn[nH]3)c2n1 (stereo not given) + Cn1nnc2c(C(N)=O)ncn2c1=O | < 0.0316 | < 0.0316 | < 0.0316 | < 0.0316 | < 0.0316 | 29 | 6.4 | 2.45 | 1.92 | 1.78 | 2.4 | 25.1 | 6.11 | 2.71 | 2.03 | 1.93 | 2.28 | 19 | 6.18 | 2.63 | viability, T/C [16]: 2%; viability, T/C [17]: 1.88%; viability, T/C [18]: 2.59%; viability, T/C [19]: 16.2%; viability, T/C [20]: 4.45%; viability, T/C [21]: 2.43%; viability, T/C [22]: 2%; viability, T/C [23]: 2.1%; viability, T/C [24]: 2.35%; viability, T/C [25]: 6.2%; viability, T/C [26]: 4.15%; viability, T/C [27]: 2.65%; viability, T/C [28]: 2.04%; viability, T/C [29]: 1.79%; viability, T/C [30]: 1.82% |
| COc1cc(C)[nH]c(=O)c1CN1CCc2c(Cl)cc(C(OC)C3COC3)c(Cl)c2C1=O (stereo not given) + Cn1nnc2c(C(N)=O)ncn2c1=O | > 10 | > 10 | > 10 | > 10 | > 10 | 96.7 | 93.1 | 69.1 | 69.2 | 63.2 | 63 | 96.7 | 84.2 | 76.5 | 66.2 | 64.6 | 60.9 | 95.3 | 94.2 | 75.6 | viability, T/C [16]: 66.8%; viability, T/C [17]: 62.7%; viability, T/C [18]: 63%; viability, T/C [19]: 99.7%; viability, T/C [20]: 96.3%; viability, T/C [21]: 76.9%; viability, T/C [22]: 66.8%; viability, T/C [23]: 65.8%; viability, T/C [24]: 64.6%; viability, T/C [25]: 96.7%; viability, T/C [26]: 91.4%; viability, T/C [27]: 74.8%; viability, T/C [28]: 67.4%; viability, T/C [29]: 68.9%; viability, T/C [30]: 63.7% |
| COc1ccc([C@@H](O)c2cc(-c3ncnc4cc(N5CCOCC5)ccc34)c(F)cc2Cl)nn1 + Cn1nnc2c(C(N)=O)ncn2c1=O | 2.23 | 1.92 | 1.91 | 1.88 | 1.06 | 102 | 95.8 | 90.8 | 64.5 | 44 | 13.5 | 100 | 94.3 | 88.7 | 63.5 | 39.4 | 16.8 | 94 | 92.1 | 89.6 | viability, T/C [16]: 66.6%; viability, T/C [17]: 36.8%; viability, T/C [18]: 15.9%; viability, T/C [19]: 98%; viability, T/C [20]: 98.2%; viability, T/C [21]: 81.5%; viability, T/C [22]: 64.8%; viability, T/C [23]: 38.5%; viability, T/C [24]: 20.6%; viability, T/C [25]: 83.2%; viability, T/C [26]: 83%; viability, T/C [27]: 70.7%; viability, T/C [28]: 48%; viability, T/C [29]: 32.3%; viability, T/C [30]: 12.8% |
| Cc1cc(C)c(CNC(=O)c2cc(-c3ccc(CN4CCOCC4)cc3)cc3c2cnn3C2CCCC2)c(=O)[nH]1 + Cn1nnc2c(C(N)=O)ncn2c1=O | > 10 | > 10 | > 10 | > 10 | > 10 | 98.4 | 105 | 92.8 | 97.2 | 91.4 | 79.8 | 101 | 99.1 | 95.1 | 98.7 | 89.9 | 72.7 | 98 | 98.2 | 100 | viability, T/C [16]: 93.5%; viability, T/C [17]: 92.6%; viability, T/C [18]: 68.4%; viability, T/C [19]: 104%; viability, T/C [20]: 98%; viability, T/C [21]: 94.4%; viability, T/C [22]: 102%; viability, T/C [23]: 88.4%; viability, T/C [24]: 73.8%; viability, T/C [25]: 94%; viability, T/C [26]: 93.9%; viability, T/C [27]: 91%; viability, T/C [28]: 95.5%; viability, T/C [29]: 85.2%; viability, T/C [30]: 70.4% |
| [2H]c1nc(C)nc([2H])c1-c1cc(NC[C@@H](C)c2cccc3c(C(=O)NC)ccnc23)ncn1 + Cn1nnc2c(C(N)=O)ncn2c1=O | > 10 | > 10 | > 10 | > 10 | > 10 | 103 | 101 | 100 | 96.8 | 93.8 | 91.7 | 104 | 100 | 98.5 | 107 | 94.1 | 90.8 | 98.2 | 103 | 101 | viability, T/C [16]: 97.5%; viability, T/C [17]: 95.3%; viability, T/C [18]: 86.2%; viability, T/C [19]: 108%; viability, T/C [20]: 102%; viability, T/C [21]: 106%; viability, T/C [22]: 102%; viability, T/C [23]: 97.2%; viability, T/C [24]: 94.4%; viability, T/C [25]: 91.1%; viability, T/C [26]: 94.4%; viability, T/C [27]: 95.2%; viability, T/C [28]: 91.4%; viability, T/C [29]: 90.9%; viability, T/C [30]: 85% |
